Assay [1] relates to AK/MK/PK enzymatic system. As to the kind of experiment: AK/MK/PK enzymatic conversion to nucleoside triphosphate. Format: biochemical.
Assay [2] has as its target T1, S-adenosyl-L-homocysteine hydrolase from Lupinus luteus (L/SAHH) (Lupinus luteus, UniProt Q9SP37).
T1 construct: made in house; host or cells: E. coli
T1 sequence (Q9SP37 1-485): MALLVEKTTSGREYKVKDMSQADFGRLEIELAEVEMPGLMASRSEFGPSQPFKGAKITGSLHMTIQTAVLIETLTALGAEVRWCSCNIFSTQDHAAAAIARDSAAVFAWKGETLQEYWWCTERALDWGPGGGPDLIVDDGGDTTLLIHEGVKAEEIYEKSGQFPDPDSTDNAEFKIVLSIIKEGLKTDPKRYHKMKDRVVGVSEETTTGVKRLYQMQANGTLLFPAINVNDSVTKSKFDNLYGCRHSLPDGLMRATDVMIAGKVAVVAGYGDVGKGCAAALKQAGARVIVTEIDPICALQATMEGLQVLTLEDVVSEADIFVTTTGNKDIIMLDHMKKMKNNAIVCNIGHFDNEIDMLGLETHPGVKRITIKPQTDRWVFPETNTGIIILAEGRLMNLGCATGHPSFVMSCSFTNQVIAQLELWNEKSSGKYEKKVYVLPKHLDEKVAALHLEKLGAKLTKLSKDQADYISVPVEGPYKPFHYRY
Put plainly: SAHH-catalysed synthesis of SAH analogs. In kind it is biochemical. Conditions: in vitro, reaction displaced toward SAH production. From the text:
Alternative chemoenzymatic routes. A few SNA probes are difficult to prepare. To broaden the substrate diversity, the reversible reaction catalyzed by S-adenosyl-L-homocysteine hydrolase from Lupinus luteus (L/SAHH) that is displaced toward SAH production in vitro was used (FIG. 5B). […] This powerful catalyst was a useful tool for production of S-nucleosyl-L-homocysteine and S-nucleosyl-L-cysteine analogs (SNH and SNC, respectively). Unlike SAM analogs, SNH and SNC probes are not substrates for PRMTs, so they are assayed as competitive inhibitors.

The target in assay [3] is T2, Methanococcus jannaschii MAT (MjMAT) (Methanocaldococcus jannaschii, UniProt Q58605).
T2 construct: made in house; host or cells: E. coli
T2 sequence (Q58605 1-406): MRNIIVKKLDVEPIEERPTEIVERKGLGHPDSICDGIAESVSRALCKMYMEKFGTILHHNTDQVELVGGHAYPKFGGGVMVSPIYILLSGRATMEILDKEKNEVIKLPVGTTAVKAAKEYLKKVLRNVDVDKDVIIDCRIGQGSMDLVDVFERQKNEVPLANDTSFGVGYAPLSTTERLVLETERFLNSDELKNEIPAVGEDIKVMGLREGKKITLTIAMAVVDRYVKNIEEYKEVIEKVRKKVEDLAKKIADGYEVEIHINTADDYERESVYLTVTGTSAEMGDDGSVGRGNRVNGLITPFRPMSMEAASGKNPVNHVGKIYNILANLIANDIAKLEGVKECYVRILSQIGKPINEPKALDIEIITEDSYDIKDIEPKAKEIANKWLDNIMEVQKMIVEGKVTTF
As to the kind of experiment: MjMAT substrate specificity (HPLC). Conditions: in the presence of ATP. In kind it is biochemical. The protocol:
Synthetic chemical approaches yield a 1:1 mixture of the two SAM stereoisomers (FIG. 4A, shaded middle frame). The enzymes that catalyze the formation of SAM from ATP and L-methionine in vivo are used to produce SAM analogs (MAT; FIG. 4A, top enzymatic approach). Adenosine phosphorylation is performed by kinases (e.g. adenosine kinase ‘AK’, myokinase ‘MK’ and pyruvate kinase ‘PK’; FIG. 4, top enzymatic approach). MAT proteins are well characterized and several mechanistic and structural biology reports make these enzymes the preferred biocatalyst for rapid access to SAM analogs. Methanococcus jannaschii MAT has been purified (MjMAT; FIG. 4B).
(§1) An enzyme array to incorporate a broad spectrum of methionine analogs. To expand the SNA library, the reactivity of several methionine analogs (FIG. 4C, amino-acid tail labelled ‘METHIONINE’) was screened toward MjMAT in the presence of ATP. […] MAT enzymes from Neisseria meningitidis (Nm) and Campylobacter jejuni (Cj) (FIG. 4B) were expressed and purified.

The test system of assay [4] is MAT from Neisseria meningitidis (NmMAT). As to the kind of experiment: NmMAT methionine analog specificity. Format: biochemical. Conditions: FIG. 6.
From the text: as §1

Assay [5] has as its system MAT from Campylobacter jejuni (CjMAT). Put plainly: CjMAT methionine analog specificity. Format: biochemical. The following applies: FIG. 6.
From the text: as §1

Assay [6] addresses T3, SAM-dependent chlorinase from Salinispora tropica (StSalL) (Salinispora tropica, UniProt A4X3Q0).
T3 construct: made in house; host or cells: E. coli
T3 sequence (A4X3Q0 1-283): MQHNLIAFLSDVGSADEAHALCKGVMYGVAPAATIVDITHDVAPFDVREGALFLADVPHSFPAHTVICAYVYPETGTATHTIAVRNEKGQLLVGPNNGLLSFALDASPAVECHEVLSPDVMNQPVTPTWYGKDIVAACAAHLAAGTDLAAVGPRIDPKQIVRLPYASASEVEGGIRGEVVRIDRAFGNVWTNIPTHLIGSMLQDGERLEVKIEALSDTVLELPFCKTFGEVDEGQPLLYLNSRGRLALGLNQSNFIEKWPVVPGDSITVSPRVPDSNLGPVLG
As to the kind of experiment: StSalL methionine analog specificity. Format: biochemical. The following applies: in the presence of 5′-chloro-5′-deoxy adenosine. The protocol:
The unique SAM-dependent chlorinase from the marine organism Salinispora tropica (StSalL) is a key enzyme for salinosporamide A biosynthesis. Although the occurrence of high chloride concentration (i.e. 546 mM) in sea water shifts the chemical equilibrium away from SAM synthesis, this reaction is reversible in vitro. StSalL (FIG. 4B) was expressed and purified, and the methionine analog specificity for this enzyme was determined in the presence of 5′-chloro-5′-deoxy adenosine (5′-ClDA; FIG. 6).

The test system of a further assay is PRMT1. Conditions: cited from earlier work.
The subject of the next assay is methyltransferases. Conditions: FIG. 2 first row from table; cited from earlier work.

Structures are written as SMILES.

`Nc1ncnc2c1ncn2[C@@H]1O[C@H](CO)[C@@H](O)[C@@H]1F` [942′-deoxy-2′-fluoro-β-D-arabinofuranosylladenine]: the “reactivity in AK/MK/PK enzymatic system” value in assay [1] was “low reactivity”.
For `N[C@@H](CS)C(=O)O` [L-cysteine], the “utilization as substrate by SAHH” value in assay [2] is on record as “could utilize”.
The same measure, in the same setting: the entry for `N[C@@H](CCS)C(=O)O` [L-homocysteine] is “could utilize”.
Turning to `CSCC[C@H](N)C(=O)O` [M0, L-methionine], the “reactivity of methionine analog toward MjMAT” value in assay [3] is on record as “efficiently processed”.
As to `CSCC[C@@H](N)C(=O)O` [M1, D-methionine], the “reactivity of methionine analog toward MjMAT” value in assay [3] is recorded as “efficiently processed”.
On to `CSCC[C@](C)(N)C(=O)O` [M2, α-methyl-methionine], for which the “reactivity of methionine analog toward NmMAT” value in assay [4] was “substrate”. Further, in assay [5], the “reactivity of methionine analog toward CjMAT” value is “substrate”.
In the case of `CSCC[C@H](N)CO` [M3, (S)-(−)-methioniol], the “reactivity of methionine analog toward CjMAT” value in assay [5] is “excellent substrate”.
`CSCCC(O)C(=O)O` (centres unmarked) [M4, 2-hydroxy-4-(methylthio) butanoic acid]: the “reactivity of methionine analog toward StSalL” value in assay [6] is on record as “Reactivity was observed”. The “reactivity of methionine analog toward NmMAT” value in assay [4] was “reactivity was not observed”. For the same molecule, the “reactivity of methionine analog toward CjMAT” value in assay [5] is reported as “reactivity was not observed”. Further, the “reactivity of methionine analog toward MjMAT” value in assay [3] is reported as “reactivity was not observed”.
Take `NCCCSC[C@H]1O[C@@H](n2cnc3c(N)ncnc32)[C@H](O)[C@@H]1O` [S-(5′-adenosyl)-3-thiopropylamine]: in the assay with PRMT1, the “selectivity for PRMT1 over PRMT6” value is recorded as 10 fold.
As for `Nc1ncnc2c1ncn2[C@@H]1O[C@H](CSCC[C@H](N)C(=O)O)[C@@H](O)[C@H]1O` [SAH, S-adenosyl-L-homocysteine], the “inhibition of methyltransferases (in words)” value in the assay on methyltransferases is given as “potent, yet non-specific, inhibitor of methyltransferases”.

The values are drawn from patent publication US20200239921A1, “CHEMOENZYMATIC SYNTHESIS OF S-NUCLEOSYL AMINO ACIDS (SNA), ANALOGS OF S-ADENOSYL-L-METHIONINE AND S-ADENOSYL-L- HOMOCYSTEINE AND USES THEREOF” (ALBERT EINSTEIN COLLEGE OF MEDICINE, priority 2016, published 2020).
